Assay results from patent US20100015141A1, “4-PHENOXY-6-ARYL-1H-PYRAZOLO[3,4-D]PYRIMIDINE AND N-ARYL-6-ARYL-1H-PYRAZOLO[3,4-D]PYRIMIDIN-4-AMINE COMPOUNDS, THEIR USE AS MTOR KINASE AND PI3 KINASE INHIBITORS, AND THEIR SYNTHESES” (Wyeth, priority 2008, published 2010).

Legend:
PI3K-γ = PI3K-γ (Homo sapiens, UniProt P48736); experiment: PI3K-gamma fluorescence polarization assay; type: biochemical; conditions: 20 μM PIP2, 25 μM ATP
Description: (§1) The reaction buffer was 20 mM HEPES pH7.5, 2 mM MgCl2, 0.05% CHAPS, and 0.01% βME (added fresh). The substrate solution was 40 μM PIP2 (diC8, Echelon, Salt Lake City Utah cat #P-4508, 1 mM in water) and 50 μM ATP in the reaction buffer. Nunc 384-well black polypropylene fluorescent plates were used for PI3K assays. The assay is run by putting 9.5 μl of freshly diluted enzyme in the reaction buffer per well, adding 0.5 μl of diluted drug or DMSO, and mixing. Then 10 μl of the substrate solution is added to each well to start the reaction. A final concentration of 20 μM PIP2 and 25 μM ATP in the reaction was used. Reactions were allowed to proceed for 30-60 minutes at room temperature. After 30-60 minutes, 20 μl of a solution of 10 nM TAMRA detector (Red detector probe-Echelon) and 2.5 uM of GST-murineGRP (1.5 mg/ml in 17% glycerol) was added per well to stop the reaction. The resulting solution was mixed well and allowed to stand for 90-110 minutes before reading plate. Assay Plates were read on Perkin-Elmer Envision plate readers with appropriate filters for Tamra [BODIPY-TMRI(1,3,4,5)P4]. Data obtained were used to calculate enzymatic activity and enzyme inhibition by inhibitor compounds. It is important to keep Red probe solutions dark. This procedure is adapted from Echelon Biosciences Inc procedure for their PI3-Kinase fluorescence polarization activity Assay kit Product number K-1100.

PI3K-α = PI3K-α (Homo sapiens, UniProt P42336); experiment: PI3K-alpha fluorescence polarization assay; type: biochemical; conditions: 20 μM PIP2, 25 μM ATP
Sequence of PI3K-α (P42336 whole entry, species assumed): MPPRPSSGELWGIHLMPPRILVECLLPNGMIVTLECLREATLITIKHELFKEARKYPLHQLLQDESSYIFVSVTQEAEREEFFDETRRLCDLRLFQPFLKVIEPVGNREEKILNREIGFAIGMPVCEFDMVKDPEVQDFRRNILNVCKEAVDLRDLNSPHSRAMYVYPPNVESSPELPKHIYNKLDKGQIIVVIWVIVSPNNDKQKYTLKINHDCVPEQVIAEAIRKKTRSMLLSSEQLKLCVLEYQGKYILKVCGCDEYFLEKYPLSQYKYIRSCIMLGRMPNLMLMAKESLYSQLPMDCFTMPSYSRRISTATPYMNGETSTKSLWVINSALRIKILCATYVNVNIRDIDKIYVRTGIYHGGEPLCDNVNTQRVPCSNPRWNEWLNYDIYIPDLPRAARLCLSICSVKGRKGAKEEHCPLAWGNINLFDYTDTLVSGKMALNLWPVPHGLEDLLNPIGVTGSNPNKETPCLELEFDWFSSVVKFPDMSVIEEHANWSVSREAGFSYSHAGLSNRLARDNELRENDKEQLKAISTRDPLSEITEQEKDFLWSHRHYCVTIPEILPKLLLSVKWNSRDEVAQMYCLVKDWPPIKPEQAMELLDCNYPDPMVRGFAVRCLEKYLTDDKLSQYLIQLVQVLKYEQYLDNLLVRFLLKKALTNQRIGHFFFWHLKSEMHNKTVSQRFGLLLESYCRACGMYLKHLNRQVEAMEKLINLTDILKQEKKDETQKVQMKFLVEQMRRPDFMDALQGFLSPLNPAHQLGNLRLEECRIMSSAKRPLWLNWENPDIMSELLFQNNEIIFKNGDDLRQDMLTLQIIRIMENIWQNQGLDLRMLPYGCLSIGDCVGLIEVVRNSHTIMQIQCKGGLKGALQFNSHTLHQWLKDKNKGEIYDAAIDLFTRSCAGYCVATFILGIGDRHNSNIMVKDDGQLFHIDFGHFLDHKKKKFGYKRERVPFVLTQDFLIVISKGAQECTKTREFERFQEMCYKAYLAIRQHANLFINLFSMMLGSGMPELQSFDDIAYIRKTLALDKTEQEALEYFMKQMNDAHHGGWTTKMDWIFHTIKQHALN
Sequence of PI3K-α (P27986 whole entry partner, species assumed): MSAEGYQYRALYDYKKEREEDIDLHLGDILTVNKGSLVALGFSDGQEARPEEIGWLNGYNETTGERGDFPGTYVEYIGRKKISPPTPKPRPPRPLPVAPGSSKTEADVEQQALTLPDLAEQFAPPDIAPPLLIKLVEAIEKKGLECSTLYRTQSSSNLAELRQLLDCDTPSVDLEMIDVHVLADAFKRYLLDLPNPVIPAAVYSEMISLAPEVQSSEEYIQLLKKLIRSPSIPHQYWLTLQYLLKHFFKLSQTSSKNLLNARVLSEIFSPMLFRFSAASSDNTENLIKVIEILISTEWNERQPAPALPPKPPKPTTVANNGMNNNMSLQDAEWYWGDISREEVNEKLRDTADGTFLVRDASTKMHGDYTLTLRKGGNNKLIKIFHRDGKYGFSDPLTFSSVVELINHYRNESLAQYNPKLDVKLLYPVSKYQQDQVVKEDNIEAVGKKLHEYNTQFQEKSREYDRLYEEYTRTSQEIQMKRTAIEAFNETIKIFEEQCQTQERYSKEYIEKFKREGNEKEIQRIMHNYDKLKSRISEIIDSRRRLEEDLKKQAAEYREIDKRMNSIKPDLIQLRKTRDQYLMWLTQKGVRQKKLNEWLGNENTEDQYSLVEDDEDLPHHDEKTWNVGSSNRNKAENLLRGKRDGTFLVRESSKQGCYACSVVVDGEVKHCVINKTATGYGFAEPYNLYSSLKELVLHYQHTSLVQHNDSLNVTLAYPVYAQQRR
Description: as §1

Sequence of PI3K-γ (P48736 whole entry, species assumed): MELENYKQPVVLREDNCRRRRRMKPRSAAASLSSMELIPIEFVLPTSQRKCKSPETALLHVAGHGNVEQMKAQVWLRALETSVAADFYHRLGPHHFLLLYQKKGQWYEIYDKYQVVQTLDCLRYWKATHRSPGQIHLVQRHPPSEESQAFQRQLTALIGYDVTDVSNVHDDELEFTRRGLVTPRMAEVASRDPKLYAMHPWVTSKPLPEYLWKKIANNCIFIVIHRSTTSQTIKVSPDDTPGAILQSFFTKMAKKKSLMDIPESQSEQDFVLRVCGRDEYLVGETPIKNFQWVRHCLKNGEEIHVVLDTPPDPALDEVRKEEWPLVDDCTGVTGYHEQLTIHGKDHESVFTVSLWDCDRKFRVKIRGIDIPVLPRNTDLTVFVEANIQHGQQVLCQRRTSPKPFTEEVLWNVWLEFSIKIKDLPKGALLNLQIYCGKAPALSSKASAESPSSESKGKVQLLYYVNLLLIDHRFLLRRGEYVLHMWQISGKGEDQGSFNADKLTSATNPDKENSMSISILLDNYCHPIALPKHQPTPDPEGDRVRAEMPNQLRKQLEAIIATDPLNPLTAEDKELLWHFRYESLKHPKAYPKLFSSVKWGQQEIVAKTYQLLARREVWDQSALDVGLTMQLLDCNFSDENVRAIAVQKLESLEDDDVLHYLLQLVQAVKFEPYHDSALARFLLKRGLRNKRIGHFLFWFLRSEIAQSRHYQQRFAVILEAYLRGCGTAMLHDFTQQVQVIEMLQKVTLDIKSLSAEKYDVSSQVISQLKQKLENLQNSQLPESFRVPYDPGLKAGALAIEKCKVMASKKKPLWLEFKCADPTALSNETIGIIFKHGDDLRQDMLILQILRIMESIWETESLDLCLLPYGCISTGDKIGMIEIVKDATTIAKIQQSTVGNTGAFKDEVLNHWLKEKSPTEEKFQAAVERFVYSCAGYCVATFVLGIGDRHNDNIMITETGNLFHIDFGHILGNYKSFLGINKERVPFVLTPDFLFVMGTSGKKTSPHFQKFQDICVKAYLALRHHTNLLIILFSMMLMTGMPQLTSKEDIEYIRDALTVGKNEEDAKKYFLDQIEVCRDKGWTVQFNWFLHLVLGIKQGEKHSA

SMILES	IC50 (PI3K-γ) [µM]	IC50 (PI3K-α) [µM]
COc1ccc(Nc2nc(-c3cccc(O)c3)nc3c2cnn3C2CCN(Cc3ccccc3)CC2)cc1OC [Example 7, 3-{1-(1-benzylpiperidin-4-yl)-4-[(3,4-dimethoxyphenyl)amino]-1H-pyrazolo[3,4-d]pyrimidin-6-yl}phenol]	5.92	> 10
NC(=O)c1ccc(Nc2nc(-c3ccc(O)cc3)nc3c2cnn3C2CCN(Cc3ccccc3)CC2)cc1 [Example 24, 4-{[1-(1-benzylpiperidin-4-yl)-6-(4-hydroxyphenyl)-1H-pyrazolo[3,4-d]pyrimidin-4-yl]amino}benzamide]	5.25	5.45
COc1ccc(Nc2nc(-c3ccc(O)cc3)nc3c2cnn3C2CCN(Cc3ccccc3)CC2)cc1OC [Example 30, 4-{1-(1-benzylpiperidin-4-yl)-4-[(3,4-dimethoxyphenyl)amino]-1H-pyrazolo[3,4-d]pyrimidin-6-yl}phenol]	3.32	> 5.94
Oc1cccc(-c2nc(Nc3ccc4[nH]ccc4c3)c3cnn(C4CCN(Cc5ccccc5)CC4)c3n2)c1 [Example 9, 3-[1-(1-benzylpiperidin-4-yl)-4-(1H-indol-5-ylamino)-1H-pyrazolo[3,4-d]pyrimidin-6-yl]phenol]	13.1	> 10
COc1ccc(N(C)c2nc(-c3ccccc3)nc3c2cnn3C)cc1OC [Example 36, N-(3,4-dimethoxyphenyl)-N,1-dimethyl-6-phenyl-1H-pyrazolo[3,4-d]pyrimidin-4-amine]		> 9.75
c1ccc(CN2CCC(n3ncc4c(Nc5ccc6[nH]ccc6c5)nc(-c5ccccc5)nc43)CC2)cc1 [Example 4, 1-(1-benzylpiperidin-4-yl)-N-1H-indol-5-yl-6-phenyl-1H-pyrazolo[3,4-d]pyrimidin-4-amine]	10.1	> 10
CC(=O)Nc1cccc(Nc2nc(-c3cccc(O)c3)nc3c2cnn3C2CCN(Cc3ccccc3)CC2)c1 [Example 10, N-(3-{[1-(1-benzylpiperidin-4-yl)-6-(3-hydroxyphenyl)-1H-pyrazolo[3,4-d]pyrimidin-4-yl]amino}phenyl)acetamide]	4.66	6.18
NC(=O)c1ccc(Nc2nc(-c3ccccc3)nc3c2cnn3C2CCN(Cc3ccccc3)CC2)cc1 [Example 1, 4-{[1-(1-benzylpiperidin-4-yl)-6-phenyl-1H-pyrazolo[3,4-d]pyrimidin-4-yl]amino}benzamide]	7	6.11
CC(=O)Nc1cccc(Nc2nc(-c3ccccc3)nc3c2cnn3C2CCN(Cc3ccccc3)CC2)c1 [Example 5, N-(3-{[1-(1-benzylpiperidin-4-yl)-6-phenyl-1H-pyrazolo[3,4-d]pyrimidin-4-yl]amino}phenyl)acetamide]	7	8.31

Now those with a lower IC50 (PI3K-α), led by results:

IC50 (PI3K-γ) [µM]	IC50 (PI3K-α) [µM]	SMILES
> 10	4.62	CC(=O)Nc1ccc(Oc2nc(-c3cccc(-c4ccccc4)c3)nc3c2cnn3C)cc1 [Example 53, N-{4-[(6-biphenyl-3-yl-1-methyl-1H-pyrazolo[3,4-d]pyrimidin-4-yl)oxy]phenyl}acetamide]
7	3.5	NC(=O)c1ccc(Nc2nc(-c3cccc(O)c3)nc3c2cnn3C2CCN(Cc3ccccc3)CC2)cc1 [Example 6, 4-{[1-(1-benzylpiperidin-4-yl)-6-(3-hydroxyphenyl)-1H-pyrazolo[3,4-d]pyrimidin-4-yl]amino}benzamide]
2.25	3.43	NC(=O)c1ccc(Nc2nc(-c3cccc(C(F)(F)F)c3)nc3c2cnn3C2CCN(Cc3ccccc3)CC2)cc1 [Example 25, 4-({1-(1-benzylpiperidin-4-yl)-6-[3-(trifluoromethyl)phenyl]-1H-pyrazolo[3,4-d]pyrimidin-4-yl}amino)benzamide]
2.46	2.81	NC(=O)c1ccc(Nc2nc(-c3cccc([N+](=O)[O-])c3)nc3c2cnn3C2CCN(Cc3ccccc3)CC2)cc1 [Example 21, 4-{[1-(1-benzylpiperidin-4-yl)-6-(3-nitrophenyl)-1H-pyrazolo[3,4-d]pyrimidin-4-yl]amino}benzamide]
